Laboratory results as given in US10828301B2, “2,4-pyrimidinediamine compounds and their uses” (Rigel Pharmaceuticals, Inc, priority 2002, dated 2020).

How the values were obtained:
[1] = test system: cultured human mast cells (CHMC); assay: CHMC low cell density IgE activation: tryptase and LTC4 assays; format: cell-based; conditions: read-out: CHMC anti-IgE Tryptase
In short: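 Degranulation measured after 30 min anti-IgE challenge at 37° C of CHMC plated at 1000-1500 cells/well following 1 h preincubation. Readouts: LTC4 by ELISA on donor-specific diluted supernatants, and tryptase activity from a 30 min room-temperature substrate reaction.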

[2] = test system: cultured human mast cells (CHMC); assay: CHMC low cell density ionomycin activation: tryptase assay; format: cell-based; conditions: read-out: CHMC Ionomycin Tryptase
[3] = Homo sapiens, Mast cell, Low Density CHMC, anti-IgE activation, tryptase readout
[4] = Homo sapiens, Mast cell, Low Density CHMC, ionomycin activation, tryptase readout
[5] = Low Density CHMC, anti-IgE activation, tryptase readout
[6] = Low Density CHMC, ionomycin activation, tryptase readout

Row | Compound | IC50 [1, 3] [µM] | IC50 [2, 4] [µM] | other results
1 | Brc1cnc(Nc2cccc(-c3ccccc3)c2)nc1Nc1cccc(-c2ccccc2)c1 [Compound R925803, N2,N4-Bis(3-phenylphenyl)-5-bromo-2,4-pyrimidinediamine] | > 10 | > 10 | 
2 | O=[N+]([O-])c1cccc(Nc2ncc(F)c(Nc3cccc([N+](=O)[O-])c3)n2)c1 [Compound R950160, N2,N4-Bis(3-nitrophenyl)-5-fluoro-2,4-pyrimidinediamine] |  |  | IC50 ([1]; Homo sapiens, Mast cell): 1 µM; IC50 ([2]; Homo sapiens, Mast cell): > 10 µM
3 | CCOC(=O)c1nc(Nc2ccc3c(c2)OCCO3)nc(Nc2ccc3c(c2)OCCO3)c1N [Compound R925857, 5-Amino-6-ethoxycarbonyl-N2,N4-bis(3,4-ethylenedioxyphenyl)-2,4-pyrimidinediamine] | 5.95 | > 10 | 
4 | CCCCCCOc1ccc(Nc2cc(Nc3ccc4c(c3)OCCO4)ncc2F)cc1 [Compound R920672, N4-(4-n-Hexyloxyphenyl)-N2-(3,4-ethylenedioxyphenyl)-5-fluoro-2,4-pyridinediamine] | > 10 | > 10 | 
5 | Fc1cnc(Nc2cccnc2)nc1Nc1ccc2c(c1)OCCO2 [Compound R920668, N4-(3,4-Ethylenedioxyphenyl)-5-fluoro-N2-(3-pyridyl)-2,4-pyrimidinediamine] | 3.2 | > 10 | 
6 | OCCn1ncc2ccc(Nc3ncc(F)c(Nc4ccc5cnn(CCO)c5c4)n3)cc21 [Compound R935238, N2,N4-Bis[1-(2-hydroxyethyl)indazoline-6-yl]-5-fluoro-2,4-pyrimidinediamine] |  |  | IC50 [1, 5]: 1.85 µM; IC50 [2, 6]: > 10 µM
7 | Oc1cccc(Nc2ncc(F)c(NC3c4ccccc4-c4ccccc43)n2)c1 [Compound R935020, N4-(Fluoren-9-yl)-5-fluoro-N2-(3-hydroxyphenyl)-2,4-pyrimidinediamine] | > 10 | > 10 | 
8 | CNC(=O)COc1cccc(Nc2ncc(F)c(Nc3ccc4c(c3)C=CCC4)n2)c1 [Compound R926944, 5-Fluoro-N4-(3,4-dihydronaphthalen-7-yl)-N2-[3-[(N-methylamino)carbonylmethyleneoxy]phenyl]-2,4-pyrimidinediamine] |  |  | IC50 [1, 5]: 0.225 µM; IC50 [2, 6]: 99 µM
9 | CCNC(=O)Nc1cccc(Nc2ncc(F)c(Nc3cccc(NC(=O)NCC)c3)n2)c1 [Compound R945045, N2,N4-Bis[3-(ethylaminocarbonylamino)phenyl]-5-fluoro-2,4-pyrimidinediamine] | > 10 | > 10 | 
10 | COc1ccc(Nc2nc(NCCN3CCN(Cc4ccccc4)CC3)ncc2F)cc1OC [Compound R940262, N2-[2-(N-Benzylpiperazino)ethyl]-N4-(3,4-dimethoxyphenyl)-5-fluoro-2,4-pyrimidinediamine] | > 10 | > 10 | 
11 | Nc1nc(Nc2cccc(O)c2)ncc1Br [Compound R935029, 4-Amino-5-bromo-N2-(3-hydroxyphenyl)-2-pyrimidineamine] | 2.83 | > 10 | 
12 | c1cc(Nc2ccc3c(c2)OCCO3)nc(Nc2ccc3c(c2)OCCO3)n1 [Compound R926243, N2,N4-Bis(3,4-ethylenedioxyphenyl)-2,4-pyrimidinediamine] | 3.1 | > 10 | 
13 | CC(C)(C)OC(=O)C=Nc1cccc(Nc2nc(Nc3cccc(N)c3)ncc2F)c1 [Compound R950179, N2-(3-Aminophenyl)-N4-(3-tert-butoxycarbonylmethyleneaminophenyl)-5-fluoro-2,4-pyrimidinediamine] | 0.955 | > 10 | 
14 | COC(=O)c1ccc(CNc2nc(Nc3cccc(O)c3)ncc2C#N)cc1 [Compound R925821, 5-Cyano-N2-(3-hydroxyphenyl)-N4-(methoxycarbonylbenzyl)-2,4-pyrimidinediamine] |  |  | IC50 [1, 5]: > 10 µM; IC50 [2, 6]: > 10 µM
15 | COc1ccc(-c2ccccc2)cc1Nc1ncc(Br)c(Nc2cc(-c3ccccc3)ccc2OC)n1 [Compound R925799, N2,N4-Bis(2-methoxy-5-phenylphenyl)-5-bromo-2,4-pyrimidinediamine] | > 10 | > 10 | 
16 | Oc1cccc(Nc2nc(NCc3ccccn3)ncc2F)c1 [Compound R945166, 5-Fluoro-N4-(3-hydroxyphenyl)-N2-(2-pyridylmethyl)-2,4-pyrimidinediamine] | > 10 | > 10 | 
17 | CCOC(=O)c1nc(Nc2cccc(O)c2)nc(Nc2cccc(O)c2)c1[N+](=O)[O-] [Compound R925849, N2,N4-Bis(3-hydroxyphenyl)-6-ethoxycarbonyl-5-nitro-2,4-pyrimidinediamine] | 8.2 | > 10 | 
18 | Oc1cccc(Nc2nc(NCc3ccc4c(c3)CCO4)ncc2F)c1 [Compound R950213, N2-[2,3-Dihydrobenzo[b]furan-5-ylmethyl]-5-fluoro-N4-(3-hydroxyphenyl)-2,4-pyrimidinediamine] | > 10 | > 10 | 

Further molecules by falling IC50 [1, 3], results first:

Row | IC50 [1, 3] [µM] | IC50 [2, 4] [µM] | Compound | other results
19 | 2.8 | > 10 | OCc1cccc(Nc2ncc(F)c(Nc3cccc(CO)c3)n2)c1 [Compound R925757, N2,N4-Bis(3-(hydroxymethyl)phenyl)-5-fluoro-2,4-pyrimidinediamine] | 
20 | 2.62 | > 10 | Oc1cccc(Nc2nc(Cl)c(Cl)c(Nc3cccc(O)c3)n2)c1 [Compound R926591, N2,N4-Bis(3-hydroxyphenyl)-5,6-dichloro-2,4-pyrimidinediamine] | 
21 | 2.45 | > 10 | COC(=O)Cc1ccc(Nc2ncc(F)c(Nc3ccc(CC(=O)OC)cc3)n2)cc1 [Compound R926605, N2,N4-Bis[4-(methoxycarbonylmethyl)phenyl]-5-fluoro-2,4-pyrimidinediamine] | 
22 | 2.2 | > 10 | Nc1cc(Cl)cc(Nc2ccnc(Nc3cc(N)cc(Cl)c3)n2)c1 [Compound R950133, N2,N4-Bis(3-amino-5-chlorophenyl)-2,4-pyrimidinediamine] | 
23 | 2.06 | > 10 | Oc1cccc(Nc2ncc(F)c(NCCSCc3c(F)cccc3Cl)n2)c1 [Compound R926724, N4-[2-[(2-Chloro-6-fluorobenzyl)thio]ethyl]-5-fluoro-N2-(3-hydroxyphenyl)-2,4-pyrimidinediamine] | 
24 | 1.69 | > 10 | OB(O)c1cccc(Nc2nc(Nc3cccc(O)c3)ncc2F)c1 [Compound R926755, 5-Fluoro-N4-(3-dihydroxyborylphenyl)-N2-(3-hydroxyphenyl)-2,4-pyrimidinediamine] | 
25 | 1.55 | > 10 | CC(C)(C)c1ccc(Nc2nc(Nc3ccc4c(c3)CC(C(=O)O)O4)ncc2F)cc1 (stereo not drawn) [Compound R926720, N4-(4-tert-Butylphenyl)-5-fluoro-N2-[2,3-dihydro-2-(carboxy)benzofuran-5-yl]-2,4-pyrimidinediamine] | 
26 | 1.38 | > 10 | OCCOc1ccc(Nc2ncc(F)c(Nc3ccc4oc(CO)cc4c3)n2)cc1 [Compound R935174, 5-Fluoro-N2-[4-(2-hydroxyethoxy)phenyl]-N4-(2-hydroxymethylbenzofur-5-yl)-2,4-pyrimidinediamine] | 
27 | 1.22 | > 10 | OCC(O)COc1ccc(Nc2ncc(F)c(Nc3cccc(O)c3)n2)cc1 (stereo not drawn) [Compound R935180, N2-[4-(2,3-Dihydroxypropoxy)phenyl]-5-fluoro-N4-(3-hydroxyphenyl)-2,4-pyrimidinediamine] | 
28 | 1.1 | > 10 | Fc1cnc(Nc2ccc(SC(F)(F)F)cc2)nc1Nc1ccc2c(c1)OCCO2 [Compound R926899, N4-(3,4-Ethylenedioxyphenyl)-5-fluoro-N2-(4-trifluoromethylthiophenyl)-2,4-pyrimidinediamine] | 
29 | 1.04 | > 10 | COC(=O)c1cc(Nc2nc(Nc3cccc(O)c3)ncc2Br)cn1C [Compound R935025, 5-Bromo-N2-(3-hydroxyphenyl)-N4-(N-methyl-2-carbomethoxypyrrol-4-yl)-2,4-pyrimidinediamine] | 
30 | 0.66 | > 10 | COc1ccc(Nc2ncc(F)c(Nc3ccc(OC)c(O)c3)n2)cc1O [Compound R926339, N2,N4-Bis(3-hydroxy-4-methoxyphenyl)-5-fluoro-2,4-pyrimidinediamine] | 
31 | 0.63 | > 10 | Oc1ccc(Nc2ncc(F)c(Nc3ccc(O)c(Cl)c3)n2)cc1Cl [Compound R926675, N2,N4-Bis(3-chloro-4-hydroxyphenyl)-5-fluoro-2,4-pyrimidinediamine] | 
32 | 0.445 | > 10 | Oc1cccc(Nc2nc(Nc3ccc4c(c3)OCC=N4)ncc2F)c1 [Compound R908706, N2-(1,4-Benzoxazin-7-yl)-5-fluoro-N4-(3-hydroxyphenyl)-2,4-pyrimidinediamine] | 
33 | 0.361 | > 10 | Fc1cnc(Nc2ccc3cc[nH]c3c2)nc1Nc1ccc2c(c1)OCCO2 [Compound R926750, N4-(3,4-Ethylenedioxyphenyl)-5-fluoro-N2-[(1H)-indol-6-yl]-2,4-pyrimidinediamine] | 
34 | 0.34 | > 10 | CNC(=O)C=Nc1cccc(Nc2ncc(F)c(Nc3cccc(O)c3)n2)c1 [Compound R950217, 5-Fluoro-N4-(3-hydroxyphenyl)-N2-[3-(N-methylamino)carbonylmethyleneaminophenyl]-2,4-pyrimidinediamine] | 
35 | 0.255 | 6.24 | COc1cc(Nc2ncc(F)c(Nc3ccc4c(c3)N=CCO4)n2)cc(OC)c1 [Compound R909245, N4-(1,4-Benzoxazin-6-yl)-N2-(3,5-dimethoxyphenyl)-5-fluoro-2,4-pyrimidinediamine] | 
36 | 0.245 | > 10 | COc1cc(Nc2ncc(F)c(Nc3cccc(O)c3)n2)cc(OC)c1OC [Compound R926761, 5-Fluoro-N4-(3-hydroxyphenyl)-N2-(3,4,5-trimethoxyphenyl)-2,4-pyrimidinediamine] | 
